From ChEMBL document CHEMBL4420076, “Amylin and calcitonin receptor agonist” (2017)
Numbered stars: 1 amine (or outer) side, 2 acyl side, 3 side chain; on linkers, the order of the positions; unused ones are H or OH. Peptide text beside a SMILES is read from it. * marks the point of attachment. C20 diacid = O=C(O)CCCCCCCCCCCCCCCCCCC(=O)*; γGlu = O=C(O)[C@H](CCC(=O)[*:2])N[*:1]

Experiments:
[1] = tested on: Rattus norvegicus; experiment: Reduction in food intake in Sprague-Dawley rat at 3 nmol/kg measured 0 to 24 hrs post dose relative to control; format: functional; design: scale not given: the % may be the effect or the level left
[2] = tested on: Rattus norvegicus; experiment: Reduction in food intake in Sprague-Dawley rat at 3 nmol/kg measured 24 to 48 hrs post dose relative to control; format: functional; design: scale not given: the % may be the effect or the level left
[3] = molecular target: T1, Amylin receptor AMY3; CALCR/RAMP3 (Homo sapiens, UniProt O60896+P30988); experiment: Agonist activity at human amylin receptor expressed in BHK570 cells co-expressing RAMP3 assessed as increase in intracellular cAMP concentration incubated for 3 hrs in absence of albumin by CRE luciferase reporter gene assay; format: functional, cell-based
T1 sequence (P30988 whole entry): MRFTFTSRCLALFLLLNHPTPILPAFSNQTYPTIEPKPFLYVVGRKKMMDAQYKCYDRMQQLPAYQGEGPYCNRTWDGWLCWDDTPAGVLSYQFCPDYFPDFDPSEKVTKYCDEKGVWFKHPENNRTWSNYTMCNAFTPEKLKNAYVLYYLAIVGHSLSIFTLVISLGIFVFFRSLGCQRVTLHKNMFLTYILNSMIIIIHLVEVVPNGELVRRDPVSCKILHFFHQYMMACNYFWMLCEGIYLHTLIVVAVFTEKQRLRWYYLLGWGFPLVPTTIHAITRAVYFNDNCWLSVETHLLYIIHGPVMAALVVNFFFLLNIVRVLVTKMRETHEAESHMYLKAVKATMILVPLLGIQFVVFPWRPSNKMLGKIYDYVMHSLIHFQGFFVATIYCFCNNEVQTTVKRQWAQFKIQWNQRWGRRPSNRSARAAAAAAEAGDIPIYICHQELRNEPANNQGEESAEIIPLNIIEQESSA
T1 sequence (O60896 whole entry): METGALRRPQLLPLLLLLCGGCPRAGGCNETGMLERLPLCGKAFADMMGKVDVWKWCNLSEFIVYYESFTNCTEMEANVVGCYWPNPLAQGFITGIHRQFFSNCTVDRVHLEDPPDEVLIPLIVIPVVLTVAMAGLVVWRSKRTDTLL

[4] = molecular target: T2, Calcitonin receptor (Homo sapiens, UniProt P30988); experiment: Agonist activity at human calcitonin receptor expressed in BHK570 cells assessed as increase in intracellular cAMP concentration incubated for 3 hrs in absence of albumin by CRE luciferase reporter gene assay; format: functional, cell-based
T2 sequence (P30988 whole entry): T1 sequence (P30988 whole entry)

[5] = molecular target: T1, Amylin receptor AMY3; CALCR/RAMP3; experiment: Agonist activity at human amylin receptor expressed in BHK570 cells co-expressing RAMP3 assessed as increase in intracellular cAMP concentration incubated for 3 hrs in presence of 10% FBS by CRE luciferase reporter gene assay; format: functional, cell-based
[6] = molecular target: T2, Calcitonin receptor; experiment: Agonist activity at human calcitonin receptor expressed in BHK570 cells assessed as increase in intracellular cAMP concentration incubated for 3 hrs in presence of 10% FBS by CRE luciferase reporter gene assay; format: functional, cell-based
[7] = Stability in pH 7.5 buffer assessed as lag time for fibril formation at 1 uM by Thioflavin T based fluorescence assay; format: physicochemical; details: pH 7.5, 1 µM
[8] = Stability in pH 7.5 buffer assessed as compound recovery at 1 uM by Thioflavin T based fluorescence assay; format: physicochemical; details: read-out: Drug recovery
[9] = Solubility in 100 mM glycylglycine buffer at pH 3.0 incubated for 18 hrs by UPLC analysis; format: physicochemical
[10] = Solubility in 100 mM bistrispropane buffer at pH 6.0 incubated for 18 hrs by UPLC analysis; format: physicochemical
[11] = Solubility in 100 mM bistrispropane buffer at pH 6.5 incubated for 18 hrs by UPLC analysis; format: physicochemical
[12] = Solubility in 100 mM bistrispropane buffer at pH 7.0 incubated for 18 hrs by UPLC analysis; format: physicochemical
[13] = Solubility in 100 mM bistrispropane buffer at pH 7.5 incubated for 18 hrs by UPLC analysis; format: physicochemical
[14] = Solubility in 100 mM bistrispropane buffer at pH 8.0 incubated for 18 hrs by UPLC analysis; format: physicochemical
[15] = Solubility in 100 mM glycylglycine buffer at pH 4.0 incubated for 18 hrs by UPLC analysis; format: physicochemical
[16] = Solubility in 100 mM glycylglycine buffer at pH 5.0 incubated for 18 hrs by UPLC analysis; format: physicochemical
[17] = molecular target: T1, Amylin receptor AMY3; CALCR/RAMP3; experiment: Displacement of [125I]-labeled rat amylin from human amylin receptor expressed in BHK tkts13 whole cells co-expressing RAMP3 incubated for 60 mins by scintillation proximity assay; format: cell-based

| SMILES | Activity [1] [%] | Activity [2] [%] | EC50 [3] [pM] | EC50 [4] [pM] | EC50 [5] [pM] | EC50 [6] [pM] | Time [7] [h] | remaining at 1 µM [8] [%] | solubility at 18 h [9] [µM] | solubility at 18 h [10] [µM] | solubility at 18 h [11] [µM] | solubility at 18 h [12] [µM] | solubility at 18 h [13] [µM] | solubility at 18 h [14] [µM] | solubility at 18 h [15] [µM] | solubility at 18 h [16] [µM] | IC50 [17] [pM] |
| --- | --- | --- | --- | --- | --- | --- | --- | --- | --- | --- | --- | --- | --- | --- | --- | --- | --- |
| CC(C)C[C@H](NC(=O)CNC(=O)[C@H](CO)NC(=O)[C@H](C)NC(=O)CC[C@H](NC(=O)CCCCCCCCCCCCCCCCCCC(=O)O)C(=O)O)C(=O)N[C@@H](CO)C(=O)N[C@H](C(=O)N[C@@H](C)C(=O)N[C@H](C(=O)N[C@@H](CC(C)C)C(=O)NCC(=O)N[C@@H](CCCNC(=N)N)C(=O)N[C@@H](CC(C)C)C(=O)N[C@@H](CO)C(=O)N[C@@H](CCC(N)=O)C(=O)N[C@@H](CCC(=O)O)C(=O)N[C@@H](CC(C)C)C(=O)N[C@@H](Cc1cnc[nH]1)C(=O)N[C@@H](CCC(=O)O)C(=O)N[C@@H](CC(C)C)C(=O)N[C@@H](CCC(N)=O)C(=O)N[C@H](C(=O)N[C@@H](CC(C)C)C(=O)N[C@@H](CCC(N)=O)C(=O)N[C@H](C(=O)N[C@@H](Cc1ccc(O)cc1)C(=O)N1CCC[C@H]1C(=O)N[C@@H](CCCNC(=N)N)C(=O)N[C@H](C(=O)N[C@@H](CCC(=O)O)C(=O)N[C@H](C(=O)NCC(=O)N[C@@H](CO)C(=O)N[C@@H](CCC(N)=O)C(=O)N[C@H](C(=O)N[C@@H](Cc1ccc(O)cc1)C(N)=O)[C@@H](C)O)[C@@H](C)O)[C@@H](C)O)[C@@H](C)O)[C@@H](C)O)C(C)C)[C@@H](C)O ({C20 diacid-γGlu}-ASGLSTAVLGRLSQELHELQTLQTYPRTETGSQTY-NH2) | 25 | 10 | 54 | 45 | 185 | 99 | 8 | 2 | ≥ 200 | ≥ 200 | ≥ 200 | ≥ 200 | ≥ 200 | ≥ 200 |  |  |  |
| CC(C)C[C@H](NC(=O)CC[C@H](NC(=O)CCCCCCCCCCCCCCCCCCC(=O)O)C(=O)O)C(=O)N[C@@H](CO)C(=O)NCC(=O)N[C@@H](CC(C)C)C(=O)N[C@@H](CO)C(=O)N[C@H](C(=O)N[C@@H](C)C(=O)N[C@H](C(=O)N[C@@H](CC(C)C)C(=O)NCC(=O)N[C@@H](CCCNC(=N)N)C(=O)N[C@@H](CC(C)C)C(=O)N[C@@H](CO)C(=O)N[C@@H](CCC(N)=O)C(=O)N[C@@H](CCC(=O)O)C(=O)N[C@@H](CC(C)C)C(=O)N[C@@H](Cc1cnc[nH]1)C(=O)N[C@@H](CCC(=O)O)C(=O)N[C@@H](CC(C)C)C(=O)N[C@@H](CCC(N)=O)C(=O)N[C@H](C(=O)N[C@@H](Cc1ccc(O)cc1)C(=O)N1CCC[C@H]1C(=O)N[C@@H](CCCNC(=N)N)C(=O)N[C@H](C(=O)N[C@@H](CCC(=O)O)C(=O)N[C@H](C(=O)NCC(=O)N[C@@H](CO)C(=O)N[C@@H](CCC(N)=O)C(=O)N[C@H](C(=O)N[C@@H](Cc1ccc(O)cc1)C(N)=O)[C@@H](C)O)[C@@H](C)O)[C@@H](C)O)[C@@H](C)O)C(C)C)[C@@H](C)O ({C20 diacid-γGlu}-LSGLSTAVLGRLSQELHELQTYPRTETGSQTY-NH2) | 36 | 21 | 31 |  | 140 | 73 | > 45 | 100 | ≥ 200 | ≥ 200 | ≥ 200 | ≥ 200 | ≥ 200 | ≥ 200 |  |  |  |
| CC(C)C[C@H](NC(=O)[C@H](C)NC(=O)[C@H](C)NC(=O)[C@@H](NC(=O)[C@H](CO)NC(=O)[C@H](CC(C)C)NC(=O)[C@H](CCC(=O)O)NC(=O)[C@H](CO)NC(=O)[C@H](C)NC(=O)CC[C@H](NC(=O)CCCCCCCCCCCCCCCCCCC(=O)O)C(=O)O)[C@@H](C)O)C(=O)NCC(=O)N[C@@H](CCCCN)C(=O)N[C@@H](CC(C)C)C(=O)N[C@@H](CO)C(=O)N[C@@H](C)C(=O)N[C@@H](CCC(=O)O)C(=O)N[C@@H](CC(C)C)C(=O)N[C@@H](Cc1cnc[nH]1)C(=O)N[C@@H](CCC(=O)O)C(=O)N[C@@H](CC(C)C)C(=O)N[C@@H](C)C(=O)N[C@H](C(=O)N[C@@H](Cc1ccc(O)cc1)C(=O)N1CCC[C@H]1C(=O)N[C@@H](CCCCN)C(=O)N[C@H](C(=O)N[C@@H](CCC(=O)O)C(=O)N[C@H](C(=O)NCC(=O)N[C@@H](CO)C(=O)NCC(=O)N[C@@H](CO)C(=O)N[C@@H](Cc1ccc(O)cc1)C(N)=O)[C@@H](C)O)[C@@H](C)O)[C@@H](C)O ({C20 diacid-γGlu}-ASELSTAALGKLSAELHELATYPKTETGSGSY-NH2) |  |  | 51 | 37 | 93 | 73 | 0 | 100 | ≥ 200 | ≥ 200 | ≥ 200 | ≥ 200 | ≥ 200 | ≥ 200 | ≥ 200 | ≥ 200 | 588 |
| CC(C)C[C@H](NC(=O)CNC(=O)[C@H](CO)NC(=O)[C@H](C)NC(=O)CC[C@H](NC(=O)CCCCCCCCCCCCCCCCCCC(=O)O)C(=O)O)C(=O)N[C@@H](CO)C(=O)N[C@H](C(=O)N[C@@H](C)C(=O)N[C@H](C(=O)N[C@@H](CC(C)C)C(=O)NCC(=O)N[C@@H](CCCNC(=N)N)C(=O)N[C@@H](CC(C)C)C(=O)N[C@@H](CO)C(=O)N[C@@H](CCC(N)=O)C(=O)N[C@@H](CCC(=O)O)C(=O)N[C@@H](CC(C)C)C(=O)N[C@@H](Cc1cnc[nH]1)C(=O)N[C@@H](CCC(=O)O)C(=O)N[C@@H](CC(C)C)C(=O)N[C@@H](CCC(N)=O)C(=O)N[C@H](C(=O)N[C@@H](Cc1ccc(O)cc1)C(=O)N1CCC[C@H]1C(=O)N[C@@H](CCCNC(=N)N)C(=O)N[C@H](C(=O)N[C@@H](CCC(=O)O)C(=O)N[C@H](C(=O)NCC(=O)N[C@@H](CO)C(=O)NCC(=O)N[C@H](C(=O)N[C@@H](Cc1ccc(O)cc1)C(N)=O)[C@@H](C)O)[C@@H](C)O)[C@@H](C)O)[C@@H](C)O)C(C)C)[C@@H](C)O |  | 15 | 57 | 65 | 105 | 54 | 0 | 23 | ≥ 200 |  |  |  |  |  |  |  |  |
| CC(C)C[C@H](NC(=O)[C@H](C)NC(=O)[C@H](C)NC(=O)[C@@H](NC(=O)[C@H](CO)NC(=O)[C@H](CC(C)C)NC(=O)[C@H](CCC(=O)O)NC(=O)[C@H](CO)NC(=O)[C@H](C)NC(=O)CC[C@H](NC(=O)CCCCCCCCCCCCCCCCCCC(=O)O)C(=O)O)[C@@H](C)O)C(=O)NCC(=O)N[C@@H](CCCNC(=N)N)C(=O)N[C@@H](CC(C)C)C(=O)N[C@@H](CO)C(=O)N[C@@H](C)C(=O)N[C@@H](CCC(=O)O)C(=O)N[C@@H](CC(C)C)C(=O)N[C@@H](Cc1cnc[nH]1)C(=O)N[C@@H](CCC(=O)O)C(=O)N[C@@H](CC(C)C)C(=O)N[C@@H](C)C(=O)N[C@H](C(=O)N[C@@H](CC(C)C)C(=O)N1CCC[C@H]1C(=O)N[C@@H](CCCNC(=N)N)C(=O)N[C@H](C(=O)N[C@@H](CCC(=O)O)C(=O)N[C@H](C(=O)NCC(=O)N[C@@H](CO)C(=O)NCC(=O)N[C@@H](CO)C(=O)NCC(N)=O)[C@@H](C)O)[C@@H](C)O)[C@@H](C)O ({C20 diacid-γGlu}-ASELSTAALGRLSAELHELATLPRTETGSGSG-NH2) |  |  | 142 | 66 | 435 | 239 | > 45 | 100 | ≥ 200 | ≥ 200 | ≥ 200 | ≥ 200 | ≥ 200 | ≥ 200 | ≥ 200 | ≥ 200 | 4360 |
